Data from patent US20250186388A1, “ACTIVE SUBSTANCES FOR MEDICAL USE” (INFLAMED PHARMA GMBH, priority 2020, published 2025).
Where a name gives a salt, the structure may show the parent alone.

Assays:
[1] = Solubility in octanol (content in the organic phase by UV/VIS spectroscopy, pH values); format: physicochemical; conditions: for pH value: solubility test in octanol
Procedure: Solubility tests were carried out in octanol and the content in the organic phase was investigated by UV/VIS spectroscopy and the pH values.

[2] = test system: rabbits incubated with E. coli; conditions: cited from earlier work
[3] = rabbits incubated with E. coli, lidocaine administration

Row | Content (solubility in octanol, content in the organic phase) [1] | pH value [1] | SMILES | incidence of pulmonary oedema ([2]; compared to a comparison group) | albumin content in the bronchoalveolar lavage ([2]; lidocaine group) | leucocytes in the bronchoalveolar lavage ([2]; lidocaine group) | haemorrhages, alveolar septal thickening and number of inflammatory cells in the alveolar space ([2]; rabbit, in vivo) | lung mechanics (compliance, resistance) [2, 3] | paO2 [2, 3]
1 | 8% | 4.5 | CCN(CC)CCOC(=O)c1ccc(N)cc1 [Procaine hydrochloride] |  |  |  |  |  | 
2 | completely dissolved (100%) | 8.5 | CCN(CC)CCOC(=O)c1ccc(N)cc1 [Procaine, 4-aminobenzoic acid-2-(N,N-diethylamino)ethyl ester] |  |  |  |  |  | 
3 |  |  | CCN(CC)CC(=O)Nc1c(C)cccc1C [lidocaine] | reduced incidence | lower | fewer | visibly reduced | improved | increase
